Laboratory results taken from patent US20100261753A1, “METHODS FOR PREVENTING AND/OR TREATING DEGENERATIVE DISORDERS OF THE CENTRAL NERVOUS SYSTEM” (AMICUS THERAPEUTICS, INC., priority 2009, published 2010).
Positions count from the first letter of the chain named. Where “and” joins values, the source holds several entries; their conditions need not be identical. Identical values can stand only once. Counter-ions that a name gives are not always drawn. Like-named read-outs stand apart in the source and are kept apart here.

How the values were obtained:
[1] = target: T1, recombinant human GCase (rhGCase; Cerezyme) (Homo sapiens, UniProt P04062, R534H); assay: In vitro enzyme inhibition assay of rhGCase with 4-MU-β-D-Glc substrate; assay type: biochemical; settings: for Ki: from IC50 by Cheng-Prusoff equation
T1 construct: purchased Genzyme Corp
T1 sequence (P04062 40-536 R534H): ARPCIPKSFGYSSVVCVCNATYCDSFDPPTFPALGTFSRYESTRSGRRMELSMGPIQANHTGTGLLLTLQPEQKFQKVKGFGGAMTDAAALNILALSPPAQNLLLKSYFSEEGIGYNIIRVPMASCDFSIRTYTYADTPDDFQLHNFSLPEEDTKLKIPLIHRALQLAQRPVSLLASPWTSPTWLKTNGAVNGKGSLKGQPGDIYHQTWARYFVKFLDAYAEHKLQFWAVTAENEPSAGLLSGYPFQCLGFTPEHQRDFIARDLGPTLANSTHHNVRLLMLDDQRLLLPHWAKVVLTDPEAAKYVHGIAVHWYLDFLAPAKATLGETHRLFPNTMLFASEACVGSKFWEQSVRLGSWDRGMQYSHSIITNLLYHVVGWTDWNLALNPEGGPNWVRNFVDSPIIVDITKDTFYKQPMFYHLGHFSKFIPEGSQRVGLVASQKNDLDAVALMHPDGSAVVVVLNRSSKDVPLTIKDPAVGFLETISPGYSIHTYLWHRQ
Experimental: The binding affinity (defined here by Ki binding constant) of GCase for small molecule pharmacological chaperones described in this document were empirically determined using enzyme inhibition assays. In brief, the enzyme inhibition assays used monitored the ability of test compound to bind and prevent the hydrolysis of a fluorogenic substrate in a concentration-dependent manner. Specifically, the enzyme activity of recombinant human GCase (rhGCase; Cerezyme®, Genzyme Corp.) was measured using the 4-methylumbelliferyl-β-D-glucopyranoside (4-MU-β-D-Glc) fluorogenic substrate in the absence or in the presence of varying amounts of each test compound. […] The enzyme inhibition assays were performed at both pH 7.0 (endoplasmic reticulum pH) and at pH 5.2 (lysosomal pH) to gain insight into the binding affinity (i.e., potency) of compounds for GCase in the endoplasmic reticulum and lysososome.
Enzyme (Cerezyme®, a recombinant form of the human enzyme β-glucocerebrosidase) was also diluted in the same buffer “M” at pH 7.0 and pH 5.2. […] Five μl of diluted enzyme was added to 15 μl of the various inhibitor concentrations or buffer “M” alone and incubated at 37° C. for 1 hour with 50 μl of the substrate preparation to assess β-glucosidase activity at pH 7.0 and pH 5.2.

lysosomal GCase = target: T2, lysosomal GCase (Homo sapiens, UniProt P04062); assay: In situ lysosomal GCase inhibition and washout assay in fibroblasts from a normal subject; assay type: cell-based; settings: for IC50: normal fibroblasts, 16-24 h incubation, PFBFDβGlu substrate; for In Situ Washout: washout time after treatment at IC90, single exponential fit
T2 construct: lysosomal GCase activity was assayed in situ using fibroblasts established from a normal subject; endogenous in cells; host or cells: fibroblasts established from a normal subject
T2 sequence (P04062 40-536): T1 sequence (P04062 40-536 R534H) with H495R
Experimental: For the dose-response assays, cells were incubated with the in situ substrate 5-(pentafluorobenzoylamino)fluorescein di-β-D-glucopyranoside (PFBFDβGlu) for 1 hour and subsequently lysed to determine the extent of substrate hydrolysis in the presence of compound. […] Inhibition was determined as the ratio of activity in the presence of compound to that in the absence of compound. […] Cells were washed extensively and incubated in drug-free medium to allow net compound efflux from cells. Cells were then tested for lysosomal GCase activity at 2 hour intervals over a total period of 8 hours following compound removal. The increase in activity over time was fitted with a single exponential function to determine the compound's washout time.

[2] = Blood brain barrier penetration after a single p.o. dose in mice; assay type: in vivo, mice (C57BL/6); settings: single 30 mg/kg (free base equivalent) p.o.
Experimental: For this purpose, 8-week old wild-type male mice (C57BL/6) were administered a single 30 mg/kg (free base equivalent) p.o. dose of reference or test compound by gavage (n=3 mice per time point). Dosing solutions were prepared in water. After dosing, mice were euthanized with CO2 at the following time points: 0-, 0.5-, 1-, and 4-hour post-dose. […] Similarly, brains were collected from each mouse. Plasma was derived by spinning whole blood at 2700 g for 10 minutes at 4° C. followed by storage on dry ice. Whole brains were washed in cold PBS to remove contaminating blood, blotted dry, flash frozen on dry ice, and ultimately stored at −80° C. until analysis. To prepare brain samples for analysis, 50-100 mg of tissue was homogenized in […]. Samples were then clarified by centrifugation. Next, 25 μl of the brain homogenate supernatant or 25 μl of plasma were combined with 25 μl of acetonitrile:water (95/5). […] Between 20 and 30 μl sample was injected for analysis. […] When Compound B was analyzed, Compound A was used as internal standard (150.1/130.1). For calculating drug concentrations, raw data for plasma (ng/mL) and brain (ng/g) was converted to nM using the molecular weight of respective compounds and assuming 1 g of tissue is equivalent to 1 mL volume. Concentration as a function of time was plotted in GraphPad Prism version 4.02.

[3] = pH 7 (endoplasmic reticulum pH), read-out: IC50 pH 7

Row | SMILES | Ki ([1]; pH 5.2, read-out: Ki pH 5.2) [nM] | IC50 [1, 3] | Ki ([1]; pH 7, read-out: Ki pH 7) | IC50 (lysosomal GCase) [nM] | In Situ Washout (lysosomal GCase) [h] | IC50 ([1]; pH 5.2, average of three independent experiments, Table 3A, read-out: IC50 pH 5.2) [nM] | IC50 ([1]; pH 5.2, average of three independent experiments, Table 3B, read-out: IC50 pH 5.2) [nM] | blood brain barrier crossing ([2]; compared to IFG) | IC50 ([1]; pH 5.2, average of three independent experiments, Table 4A, read-out: IC50 pH 5.2) [nM] | IC50 ([1]; pH 5.2, average of three independent experiments, Table 4B, read-out: IC50 pH 5.2) [nM] | brain levels ([2]; compared to hydrochloride salt form of Compound A)
1 | O[C@@H]1CNCC(CF)[C@H]1O (stereo in doubt) [Compound A-HCl, (3R,4R,5R)-5-(fluoromethyl)piperidine-3,4-diol hydrochloride] | 6 | 6 nM and 7 nM | 3 nM and 4 nM | 17 ± 8 | 6.6 ± 0.12 | – | – | – | – | – | –
2 | O[C@@H]1CNCC(CF)[C@H]1O (stereo in doubt) [Compound A, (3R,4R,5R)-5-(fluoromethyl)piperidine-3,4-diol] | – | – | – | – | – | 10 ± 1 | 10 ± 1 | crossed the blood brain barrier more readily as compared to IFG | – | – | –
3 | O[C@@H]1[C@@H](CCl)CNC[C@H]1O [Compound B, (3R,4R,5S)-5-(chloromethyl)piperidine-3,4-diol] | 384 ± 2.1 | 9.8 ± 0.5 nM | 5.1 ± 0.3 nM | 121 ± 7 | 2.9 ± 0.22 | – | – | – | 73 ± 9 | 73 ± 9 | even higher levels of Compound B were detected in brain
